From US20090192123A1, “Use of dipyridamole or mopidamole for treatment and prevention of thrombo-embolic diseases and disorders caused by excessive formation of Thrombin and/or by elevated expression of Thrombin receptors” (BOEHRINGER INGELHEIM INTERNATIONAL GMBH, priority 2003, published 2009)

Key:
[1] = test system: Thrombin receptor (PAR-1); experiment: Thrombin receptor (PAR-1) expression on platelets of post-stroke patients during treatment, flow cytometry with antibodies; format: in vivo, human; settings: for Thrombin receptor (PAR-1) SPAN 12 (intact receptor) / Thrombin receptor (PAR-1) WEDE 15 (cleaved receptor): platelets of stroke patients, relative number, mean ± SD; for Change of intact (complete) and cleaved Thrombin receptor expression on platelets, in words: stroke patients, course of treatment of 30 days / one month, platelets ex vivo
Protocol: In order to study the inhibition of Thrombin receptor expression, patients surviving a stroke have been treated with conventional antiplatelet therapy (oral ASA) or a combination of Dipyridamole and ASA (Aggrenox) and thrombin receptor expression was measured during the course of treatment of one month. The expression of the complete as well as the cleaved Thrombin receptor was measured by flow cytometry using well established antibody technology on platelets after venipuncture.
Inhibition of Thrombin Receptor Expression in Platelets—by the Dipyridamole
Table 1 represents the mean and standard deviation of the relative numbers of expressed intact as well as cleaved Thrombin receptors on platelets over time after initiation of treatment with either ASA or the combination of Dipyridamole and ASA.

[2] = ESPS-2 clinical study, compared with low-dose aspirin / aspirin alone; cited from earlier work
[3] = Baseline (n = 15), flow cytometry

| SMILES | Thrombin receptor (PAR-1) SPAN 12 (intact receptor) ([1]; 24 hr of treatment (n = 15)) | Thrombin receptor (PAR-1) WEDE 15 (cleaved receptor) ([1]; 24 hr of treatment (n = 15)) | Thrombin receptor (PAR-1) SPAN 12 (intact receptor) ([1]; 3 days of treatment (n = 15)) | Thrombin receptor (PAR-1) WEDE 15 (cleaved receptor) ([1]; 3 days of treatment (n = 15)) | Thrombin receptor (PAR-1) SPAN 12 (intact receptor) ([1]; 7 days of treatment (n = 15)) | Thrombin receptor (PAR-1) WEDE 15 (cleaved receptor) ([1]; 7 days of treatment (n = 15)) | Thrombin receptor (PAR-1) SPAN 12 (intact receptor) ([1]; 15 days of treatment (n = 14)) | Thrombin receptor (PAR-1) WEDE 15 (cleaved receptor) ([1]; 15 days of treatment (n = 14)) | Thrombin receptor (PAR-1) SPAN 12 (intact receptor) ([1]; 30 days of treatment (n = 12)) | Thrombin receptor (PAR-1) WEDE 15 (cleaved receptor) ([1]; 30 days of treatment (n = 12)) | Thrombin receptor (PAR-1) SPAN 12 (intact receptor) [1, 3] | Thrombin receptor (PAR-1) WEDE 15 (cleaved receptor) [1, 3] | Change of intact (complete) and cleaved Thrombin receptor expression on platelets, in words [1] | Reduction of stroke risk, in words [2] |
| --- | --- | --- | --- | --- | --- | --- | --- | --- | --- | --- | --- | --- | --- | --- |
| CC(=O)Oc1ccccc1C(=O)O [ASA, acetylsalicalic acid] | 37 ± 7 | 21.9 ± 4.6 | 28 ± 9 | 15.3 ± 3.3 | 24 ± 5 | 17.1 ± 6.1 | 26 ± 4.* | 16.9 ± 7.5 | 22 ± 7 | 14.2 ± 5.0 | 34 ± 7 | 21.0 ± 5.3 | mild reduction | – |
| OCCN(CCO)c1nc(N2CCCCC2)c2nc(N(CCO)CCO)nc(N3CCCCC3)c2n1 [Dipyridamole, 2,6-bis(diethanolamino)-4,8-dipiperidino-pyrimido[5,4-d]pyrimidine] | – | – | – | – | – | – | – | – | – | – | – | – | significant reduction | as effective as low-dose aspirin |
